Test results reported in US20100204128A1, “NOVEL PEPTIDES” (SANARE INVESTMENT AS, priority 2007, published 2010).
Several values for one entry are separate records, joined by “and”; a condition that tells them apart may be missing. Equal values may be shown once.

Legend:
Assay type in all cases: cell-based
Conditions in all cases: for fluorescent readings: 24 hours, duplicate wells
TMX2-28 cells = assay: AlmarBlue fluorescence cell growth test, TMX2-28 cells
Protocol: With that, the 5×10^−3M mixture contains about 0.42×10^−3M of each peptide. Furthermore, mixtures containing equal volumes of peptides SEQ ID NO:2-SEQ ID NO:7, SEQ ID NO:10 and SEQ ID NO:11 were also prepared (equal volumes of said re-feed media) to yield the following final six concentrations: […] With that, the 5×10^−3M mixture contains about […].
(§1) MCF-7 and T47D cells were seeded into 96-well plates at a density of 10,000 cells per well in 90 μL of appropriate culture medium. TMX2-28 cells were seeded into 96-well plates at a density of 5,000 cells per well in 90 μL of appropriate culture medium. Plates were placed in a 37° C., 5% CO2 incubator and cells were allowed to attach to the bottom of the well for 24 hours after which 10 μL of the appropriate refeed medium was added. Each concentration was tested in duplicate in each cell line. […] Cells were then incubated for 24 hours. Subsequently 10 μL of AlmarBlue (Biosource) was added to each well. After three hours, the fluorescence was detected using a Packard Instrument Plate Reader with 535/20 excitation and 590/20 emission filters.

T47D cells = assay: AlmarBlue fluorescence cell growth test, T47D cells
Protocol: (§2) Re-feed media were prepared to yield the following final six concentrations of each of the 12 peptides: 5×10^−3, 5×10^−4, 5×10^−5, 5×10^−6, 5×10^−7, and 5×10^−8M. […] With that, the 5×10^−3M mixture contains about 0.42×10^−3M of each peptide. […] With that, the 5×10^−3M mixture contains about 0.42×10^−3M of each of said 8 peptides.
as §1

MCF-7 cells = assay: AlmarBlue fluorescence cell growth test, MCF-7 cells
Protocol: as §2, §1

[1] = 5 × 10^−4 M (mixtures: total concentration), decrease vs DC5 = reduced cell growth
[2] = 5 × 10^−5 M (mixtures: total concentration)
[3] = 5 × 10^−6 M (mixtures: total concentration)
[4] = 5 × 10^−7 M (mixtures: total concentration)
[5] = 5 × 10^−8 M (mixtures: total concentration)
[6] = 5 × 10^−9 M (mixtures: total concentration)

Row | Molecule | fluorescent readings (MCF-7 cells; [1]) | fluorescent readings (MCF-7 cells; [2]) | fluorescent readings (MCF-7 cells; [3]) | fluorescent readings (MCF-7 cells; [4]) | fluorescent readings (MCF-7 cells; [5]) | fluorescent readings (MCF-7 cells; [6]) | fluorescent readings (TMX2-28 cells; [1]) | fluorescent readings (TMX2-28 cells; [2]) | fluorescent readings (TMX2-28 cells; [3]) | fluorescent readings (TMX2-28 cells; [4]) | fluorescent readings (TMX2-28 cells; [5]) | fluorescent readings (TMX2-28 cells; [6]) | fluorescent readings (T47D cells; [1]) | fluorescent readings (T47D cells; [2]) | fluorescent readings (T47D cells; [3]) | fluorescent readings (T47D cells; [4]) | fluorescent readings (T47D cells; [5]) | fluorescent readings (T47D cells; [6]) | further results
1 | c1ccc2c(c1)cc1ccc3cccc4ccc2c1c34 [BaP, Benzo[a]pyrene, reference compound] |  |  |  |  |  |  |  |  |  |  |  |  |  |  |  |  |  |  | effect on proliferation (in words) (TMX2-28 cells; 24 hours incubation): insufficient to decrease the proliferation; effect on proliferation (in words) (T47D cells; 24 hours incubation): insufficient to decrease the proliferation
2 | CC/C(=C(\c1ccccc1)c1ccc(OCCN(C)C)cc1)c1ccccc1 [Tamoxifen, reference compound] |  |  |  |  |  |  |  |  |  |  |  |  |  |  |  |  |  |  | effect on proliferation (in words) (MCF-7 cells; 24 hours incubation): insufficient to decrease the proliferation
3 | SEQIDNO1: synthesised peptide identified in the 10 kDa blood fraction after acupuncture; sequence not printed in the text (ASPVAPLDPLLKYGRGQPVSSASGTTTDLGQ; Derived from human blood sample) | 69131 and 67176 | 65474 and 66009 | 65860 and 64140 | 62613 and 62686 | 63693 and 62463 | 62279 and 60719 | 74129 and 72743 | 73649 and 71774 | 72975 and 71640 | 74503 and 75697 | 75445 and 77164 | 71409 and 71588 | 65814 and 66151 | 64794 and 65757 | 63241 and 63091 | 63036 and 62709 | 62633 and 62689 | 55767 and 59593 | 
4 | SEQIDNO2: synthesised peptide identified in the 10 kDa blood fraction after acupuncture; sequence not printed in the text (KVGAHAGEYGAEALER; Derived from human blood sample) | 68630 and 65876 | 66492 and 66554 | 65617 and 65531 | 63699 and 63627 | 63539 and 63477 | 63298 and 62132 | 70121 and 70743 | 70162 and 68517 | 69083 and 71861 | 72557 and 73134 | 72061 and 73603 | 68910 and 72372 | 66780 and 68474 | 67257 and 66607 | 63525 and 67453 | 64064 and 66021 | 62463 and 63876 | 57744 and 60399 | 
5 | SEQIDNO3: synthesised peptide identified in the 10 kDa blood fraction after acupuncture; sequence not printed in the text (KTFTVTEGSMAGGAWGRL; Derived from human blood sample) | 63831 and 65178 | 64053 and 64928 | 64217 and 64899 | 62452 and 66233 | 61563 and 63132 | 62603 and 61621 | 68963 and 67344 | 69237 and 66454 | 71007 and 67496 | 72558 and 69648 | 72686 and 69197 | 69066 and 70821 | 61359 and 61718 | 66736 and 61724 | 65079 and 58554 | 64329 and 59141 | 61766 and 61031 | 59482 and 59451 | 
6 | SEQIDNO4: synthesised peptide identified in the 10 kDa blood fraction after acupuncture; sequence not printed in the text (KFLQAKFYQLSLERP; Derived from human blood sample) | 64475 and 66716 | 63637 and 66597 | 65699 and 66767 | 64278 and 64885 | 64878 and 64702 | 61356 and 61062 | 68299 and 67310 | 67939 and 68552 | 69917 and 70618 | 70744 and 72469 | 71761 and 72585 | 70255 and 70823 | 65000 and 63427 | 66449 and 66303 | 66808 and 65677 | 65859 and 65314 | 66040 and 64619 | 57800 and 59394 | 
7 | SEQIDNO5: synthesised peptide identified in the 10 kDa blood fraction after acupuncture; sequence not printed in the text (REVQGAFLRFMACLLKGYRV; Derived from human blood sample) | 56679 and 54497 | 61089 and 62458 | 61618 and 65571 | 61677 and 66372 | 62738 and 64281 | 57537 and 60120 | 27056 and 29836 | 62564 and 67140 | 67405 and 69619 | 69438 and 69605 | 70141 and 70591 | 69376 and 67302 | 54287 and 54068 | 61500 and 65566 | 63089 and 64735 | 64043 and 64408 | 62339 and 63402 | 61350 and 61820 | 
8 | SEQIDNO6: synthesised peptide identified in the 10 kDa blood fraction after acupuncture; sequence not printed in the text (RKEGKGERE; Derived from human blood sample) | 69282 and 66723 | 69071 and 69114 | 67961 and 70454 | 66967 and 68329 | 65221 and 65987 | 60855 and 61454 | 68949 and 68566 | 70355 and 69358 | 70389 and 69887 | 71096 and 70512 | 70707 and 71208 | 62308 and 64367 | 60992 and 68394 | 57868 and 68983 | 66902 and 68862 | 65508 and 66620 | 65244 and 64730 | 61392 and 63577 | 
